SMILES strings stand for the structures.

Type in all cases: cell-based
Holding throughout (details): SPAP reporter

In one assay the target is T1, HPPARα (Homo sapiens, UniProt Q07869).
T1 construct: expressed in transfected cells; host or cells: CV-1 cells
T1 sequence (Q07869 239-466 limits assumed): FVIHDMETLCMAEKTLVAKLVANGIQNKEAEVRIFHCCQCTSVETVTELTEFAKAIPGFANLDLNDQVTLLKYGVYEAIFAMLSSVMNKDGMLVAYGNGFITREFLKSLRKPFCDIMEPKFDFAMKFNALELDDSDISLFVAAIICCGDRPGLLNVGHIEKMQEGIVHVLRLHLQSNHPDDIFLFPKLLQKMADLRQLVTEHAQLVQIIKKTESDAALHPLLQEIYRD
Put plainly: Transient transfection (transactivation) assay, hPPAR alpha-GAL4 chimera in CV-1 cells. An excerpt:
(§1) Compounds were screened for functional potency in transient transfection assays in CV-1 cells for their ability to activate the PPAR subtypes (transactivation assay). A previously established chimeric receptor system was utilized to allow comparison of the relative transcriptional activity of the receptor subtypes on the same target gene and to prevent endogenous receptor activation from complicating the interpretation of results. See, for example, Lehmann, J. M.; Moore, L. B.; Smith-Oliver, T. A.; Wilkison, W. O.; Willson, T. M.; Kliewer, S. A., An antidiabetic thiazolidinedione is a high affinity ligand for peroxisome proliferator-activated receptor gamma (PPARgamma), J. Biol. Chem., 270, 12953-6 (1995). The ligand binding domains for murine and human PPAR alpha, PPAR gamma, and PPAR delta were each fused to the yeast transcription factor GAL4 DNA binding domain. CV-1 cells were transiently transfected with expression vectors for the respective PPAR chimera along with a reporter construct containing five copies of the GAL4 DNA binding site driving expression of secreted placental alkaline phosphatase (SPAP) and beta-galactosidase. After 16 h, the medium was exchanged to DME medium supplemented with 10% delipidated fetal calf serum and the test compound at the appropriate concentration. […]

The next assay concerns the target T2, HPPARγ (Homo sapiens, UniProt P37231).
T2 construct: expressed in transfected cells; host or cells: CV-1 cells
T2 sequence (P37231 238-503 limits assumed): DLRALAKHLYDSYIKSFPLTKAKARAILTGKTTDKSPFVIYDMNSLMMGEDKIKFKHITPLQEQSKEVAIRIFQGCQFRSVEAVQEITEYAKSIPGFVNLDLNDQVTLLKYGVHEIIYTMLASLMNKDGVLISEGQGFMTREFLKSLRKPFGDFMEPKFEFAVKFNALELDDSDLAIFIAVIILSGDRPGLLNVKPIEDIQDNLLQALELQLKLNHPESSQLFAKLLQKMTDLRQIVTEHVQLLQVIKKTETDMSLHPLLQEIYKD
Put plainly: Transient transfection (transactivation) assay, hPPAR gamma-GAL4 chimera in CV-1 cells.
Text: as §1

In another assay the target is T3, HPPARδ (Homo sapiens, UniProt Q03181).
T3 construct: expressed in transfected cells; host or cells: CV-1 cells
T3 sequence (Q03181 211-439 limits assumed): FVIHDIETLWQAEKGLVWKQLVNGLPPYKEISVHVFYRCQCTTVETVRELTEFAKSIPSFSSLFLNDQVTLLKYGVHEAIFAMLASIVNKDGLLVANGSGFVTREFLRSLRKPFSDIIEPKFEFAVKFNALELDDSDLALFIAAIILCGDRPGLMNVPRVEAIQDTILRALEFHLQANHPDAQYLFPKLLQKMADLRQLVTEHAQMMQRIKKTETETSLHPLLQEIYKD
Put plainly: Transient transfection (transactivation) assay, hPPAR delta-GAL4 chimera in CV-1 cells.
Text: as §1

The term EC50 denotes the midpoint of the concentration-response curve. Higher therefore signals a less potent agent. Consider `Cc1nc(C(=O)NCc2ccc(OC(C)(C)C(=O)O)cc2)sc1-c1ccc(C(C)C)cc1` [Example 1, 2-methyl-2-[(4-{[({4-methyl-5-[4-(1-methylethyl)phenyl]-1,3-thiazol-2-yl}carbonyl)amino]methyl}phenyl)oxy]propanoic acid], for which the figures for the EC50 on HPPARα, on HPPARγ and at HPPARδ were 0.008 µM, 0.19 µM and 6.1 µM, respectively.
